Values joined by “and” are separate entries in the source; they are usually repeats but may differ in a detail not shown here. Identical values can stand only once. Like-named read-outs stand apart in the source and are kept apart here.
Legend:
normal human melanocytes = assay: Depigmenting activity: reduction of melanin production in normal human melanocytes in vitro; assay type: cell-based; conditions: Melanocyte
Description: The measurement of the depigmenting activity (reduction of melanin production) of compounds of formula (I) was performed by assaying normal human melanocytes in vitro as follows.
First of all, normal human melanocytes were cultured and dispensed into 384 wells. After 24 hours, the culture medium was replaced with a medium containing compounds of formula (I) to be evaluated. The cells were incubated for 72 hours before measurement of the final optical density, which measures the amount of melanin produced by the melanocytes. A dose effect was performed using a wide concentration range of the compounds evaluated. Thus, by making the concentrations and the measurements of melanin correspond, it is possible to determine an IC50 in μM: concentration at which 50% decrease in melanin synthesis is achieved.

[1] = Stability of the compound (statement in the synthesis example); assay type: physicochemical; conditions: no conditions given
[2] = system: coculture of keratinocytes and melanocytes; assay: Modulatory effect on melanogenesis and cytotoxicity in a coculture of keratinocytes and melanocytes; assay type: cell-based; conditions: for IC50: melanin optical density, read-out: IC50 (concentration for which 50% of the melanin synthesis is inhibited)
Description: The modulatory effect on melanogenesis of each compound was measured according to the method described in the patent FR-A-2734825, and also in the article by R. Schmidt, P. Krien and M. Régnier, Anal. Biochem., 235(2), 113-18, 1996. This test is carried out on a coculture of keratinocytes and melanocytes. For the compounds tested, the following were determined: • the cytotoxicity, • the inhibitory activity on melanin synthesis, by estimating the melanin optical density, • the IC50 values (concentration for which 50% of the melanin synthesis is inhibited).

[3] = system: pigmented reconstructed epidermis; assay: Experiment on pigmented reconstructed epidermis (melanin versus solvent); assay type: cell-based
From the text: Experiment on pigmented reconstructed epidermis

[4] = Homo sapiens, 72 h, Table 3 test campaign, normal human melanocytes, 72 hours incubation, 50% decrease in melanin synthesis, maximum concentration tested 200 μM, read-out: IC50
[5] = Table 2 test campaign, normal human melanocytes, 72 hours incubation, concentration at which 50% decrease in melanin synthesis is achieved, maximum concentration tested 200 μM, read-out: IC50
[6] = Homo sapiens, prior-art comparison compounds, compared with the Table 2 results, melanin synthesis in normal human melanocytes, read-out: IC50 value

melting point	Compound	IC50 (normal human melanocytes; [4])	IC50 (normal human melanocytes; [5])	other results
78 to 81 °C	COCCN(CCOC)C(=O)CCC(C)c1ccc(O)cc1O (centres unmarked) [Compound 25, 4-(2,4-dihydroxyphenyl)-N,N-bis(2-methoxyethyl)pentanamide]	5270 nM	–	–
–	CC(CCC(=O)O)c1ccc(O)cc1O (centres unmarked) [Compound 1, 4-(2,4-dihydroxyphenyl)pentanoic Acid]	–	4800 nM	stability of the compound [1]: stable
48 to 50 °C	CCOC(=O)[C@H](C)NC(=O)CCC(C)c1ccc(O)cc1O (stereo partly drawn) [Compound 15, ethyl N-[4-(2,4-dihydroxyphenyl)pentanoyl]-L-alaninate]	–	1080 nM	–
–	CC(CCC(=O)N(C)CC(=O)O)c1ccc(O)cc1O (centres unmarked) [Compound 28, N-[4-(2,4-dihydroxyphenyl)pentanoyl]-N-methylglycine]	31100 nM	–	–
59 to 65 °C	CC(CCC(=O)NCC(=O)O)c1ccc(O)cc1O (centres unmarked) [Compound 14, N-[4-(2,4-dihydroxyphenyl)pentanoyl]glycine]	18500 nM	–	–
–	CCCCc1ccc(O)cc1O [Lucinol, 4-n-butyl resorcinol, reference compound]	–	–	IC50 [2]: 790 nM; Comparison of melanin with respect to the solvent (DMSO) ([3]; effective concentration 500 μM): −25%
–	CCC(C)NC(=O)CCC(C)c1ccc(O)cc1O (centres unmarked) [Compound 5, N-(butan-2-yl)-4-(2,4-dihydroxyphenyl)pentanamide]	391 nM	447 nM	–
–	CCCCNC(=O)CCC(C)c1ccc(O)cc1O (centres unmarked) [Compound 4, N-butyl-4-(2,4-dihydroxyphenyl)pentanamide]	–	692 nM	–
–	CC(CCC(=O)NCC1CCCCC1)c1ccc(O)cc1O (centres unmarked) [Compound 7, N-(cyclohexylmethyl)-4-(2,4-dihydroxyphenyl)pentanamide]	–	401 nM	–
60 to 65 °C and 56 °C	CC(C)NC(=O)CCC(C)c1ccc(O)cc1O (centres unmarked) [Compound 3, 4-(2,4-dihydroxyphenyl)-N-(propan-2-yl)pentanamide]	–	617 nM	–
65 to 68 °C	CC(CCC(=O)N[C@H](C)C(=O)O)c1ccc(O)cc1O (stereo partly drawn) [Compound 18, N-[4-(2,4-dihydroxyphenyl)pentanoyl]-D-alanine]	–	1630 nM	–
–	CC(CCC(=O)N1CCOCC1)c1ccc(O)cc1O (centres unmarked) [Compound 29, 4-(2,4-dihydroxyphenyl)-1-(morpholin-4-yl)pentan-1-one]	1820 nM	2940 nM	–
75 to 78 °C	CC(CCC(=O)NC1CCCCC1)c1ccc(O)cc1O (centres unmarked) [Compound 6, N-cyclohexyl-4-(2,4-dihydroxyphenyl)pentanamide]	391 nM	557 nM	cytotoxicity [2]: non-cytotoxic; IC50 [2]: 140 nM
–	CCOC(=O)CCC(C)c1ccc(O)cc1O (centres unmarked) [Compound 30, ethyl 4-(2,4-dihydroxyphenyl)pentanoate]	–	1010 nM	–
–	CC(CCC(=O)NCCc1ccc(O)cc1)c1ccc(O)cc1O (centres unmarked) [Compound 8, 4-(2,4-dihydroxyphenyl)-N-[2-(4-hydroxyphenyl)ethyl]pentanamide]	–	391 nM	–
–	CNC(=O)/C=C/c1ccc(O)cc1O [(A), reference compound]	–	–	IC50 (normal human melanocytes; [6]): 3860 nM
–	O=C(O)CCc1ccc(O)cc1O [(C), reference compound]	–	–	IC50 (normal human melanocytes; [6]): 63100 nM
–	COC(=O)CC(C)c1ccc(O)cc1O (centres unmarked) [(B), reference compound]	–	–	IC50 (normal human melanocytes; [6]): 4970 nM
54 to 56 °C	CC(CCC(N)=O)c1ccc(O)cc1O (centres unmarked) [Compound 10, 4-(2,4-dihydroxyphenyl)pentanamide]	–	1070 nM	–
–	CC(CCC(=O)OCCCNC(=O)C1OC(C)(C)OCC1(C)C)c1ccc(O)cc1O (centres unmarked) [Compound 34, 3-{[(2,2,5,5-tetramethyl-1,3-dioxan-4-yl)carbonyl]amino}propyl 4-(2,4-dihydroxyphenyl)pentanoate]	–	2950 nM	–
–	CCOC(=O)CN(C)C(=O)CCC(C)c1ccc(O)cc1O (centres unmarked) [Compound 27, ethyl N-[4-(2,4-dihydroxyphenyl)pentanoyl]-N-methylglycinate]	51300 nM	–	–
–	CCNC(=O)CCC(C)c1ccc(O)cc1O (centres unmarked) [Compound 2, 4-(2,4-dihydroxyphenyl)-N-ethylpentanamide]	–	824 nM	depigmenting efficiency ([3]; comparison with lucinol): greater than lucinol; Comparison of melanin with respect to the solvent (DMSO) ([3]; effective concentration 50 μM): −26%
51 to 59 °C	CCOC(=O)[C@H](Cc1ccccc1)NC(=O)CCC(C)c1ccc(O)cc1O (some centres unmarked) [Compound 22, ethyl N-[4-(2,4-dihydroxyphenyl)pentanoyl]phenylalaninate]	8330 nM	–	–
–	CC(CCC(=O)NCCO)c1ccc(O)cc1O (centres unmarked) [Compound 9, 4-(2,4-dihydroxyphenyl)-N-(2-hydroxyethyl)pentanamide]	–	636 nM	–
63 °C	COC(=O)[C@H](CC(C)C)NC(=O)CCC(C)c1ccc(O)cc1O (some centres unmarked) [Compound 20, methyl N-[4-(2,4-dihydroxyphenyl)pentanoyl]leucinate]	1200 nM	1580 nM	–
–	CC(CCC(=O)OC[C@@H](O)[C@H](O)[C@@H](O)CO)c1ccc(O)cc1O (stereo partly drawn) [Compound 32, 5-O-[4-(2,4-dihydroxyphenyl)pentanoyl]-D-xylitol]	–	3030 nM	–
–	CCNC(=O)CCC(C)c1ccc(OC(C)=O)cc1OC(C)=O (centres unmarked) [Compound 11, 4-[5-(ethylamino)-5-oxopentan-2-yl]benzene-1,3-diyl diacetate]	–	940 nM	–
–	CCOC(=O)C(C)NC(=O)CCC(C)c1ccc(O)cc1O (racemic) [Compound 17, ethyl N-[4-(2,4-dihydroxyphenyl)pentanoyl]-DL-alaninate]	391 nM	–	cytotoxicity [2]: non-cytotoxic; IC50 [2]: 120 nM
–	CCN(CCO)C(=O)CCC(C)c1ccc(O)cc1O (centres unmarked) [Compound 26, 4-(2,4-dihydroxyphenyl)-N-ethyl-N-(2-hydroxyethyl)pentanamide]	–	1960 nM	cytotoxicity [2]: non-cytotoxic; IC50 [2]: 450 nM
–	CCN(CC)C(=O)CCC(C)c1ccc(O)cc1O (centres unmarked) [Compound 24, 4-(2,4-dihydroxyphenyl)-N,N-diethylpentanamide]	–	1020 nM	–

Reference: patent publication US11401236B2, “Resorcinol derivatives for their cosmetic use” (L'OREAL, priority 2017, dated 2022)
